In ChEMBL document CHEMBL3352775, “Identification of substituted 3-hydroxy-2-mercaptocyclohex-2-enones as potent inhibitors of human lactate dehydrogenase” (Bioorg Med Chem Lett, 2014):

What follows are compounds tested against T1, L-lactate dehydrogenase A chain (Homo sapiens, UniProt P00338) (assay: Inhibition of human recombinant carboxy-terminal His-tagged LDHA by UV endpoint assay).

SMILES | IC50 [µM]
O=C1CC(c2ccccc2)CC(O)=C1Sc1ccccc1C(F)(F)F (centres undefined) | > 66
COC(=O)c1ccccc1SC1=C(O)CC(c2ccccc2)CC1=O (centres undefined) | > 100
CS(=O)(=O)c1ccccc1SC1=C(O)CC(c2ccccc2)CC1=O (centres undefined) | > 100
COc1ccc(OC)c(SC2=C(O)CC(c3ccccc3)CC2=O)c1 (centres undefined) | > 100
O=C1CC(c2ccccc2Cl)CC(O)=C1Sc1ccccc1Cl (centres undefined) | 5.6
O=C1CC(c2cccc(Cl)c2)CC(O)=C1Sc1ccccc1Cl (centres undefined) | 5.6
O=C1CC(c2ccc(Cl)cc2)CC(O)=C1Sc1ccccc1Cl (centres undefined) | 18
COc1ccc(C2CC(=O)C(Sc3ccccc3Cl)=C(O)C2)cc1 (centres undefined) | 19
O=C1CC(c2c(F)cccc2Cl)CC(O)=C1Sc1ccccc1Cl (centres undefined) | 3.7
O=C1CC(c2c(Cl)cccc2Br)CC(O)=C1Sc1ccccc1Cl (centres undefined) | 0.58
O=C1CC(c2c(F)cccc2F)CC(O)=C1Sc1ccccc1Cl (centres undefined) | 7.4
O=C1CC(c2c(Br)cccc2Br)CC(O)=C1Sc1ccccc1Cl (centres undefined) | 0.27
Cc1cccc(C)c1C1CC(=O)C(Sc2ccccc2Cl)=C(O)C1 (centres undefined) | 2.3
O=C1CC(c2c(Cl)ccc(Br)c2Cl)CC(O)=C1Sc1ccccc1Cl (centres undefined) | 0.5
N#Cc1ccccc1SC1=C(O)CC(c2ccccc2Cl)CC1=O (centres undefined) | 3.1
N#Cc1ccccc1SC1=C(O)CC(c2cccc(Cl)c2)CC1=O (centres undefined) | 6.8
N#Cc1ccccc1SC1=C(O)CC(c2ccc(Cl)cc2)CC1=O (centres undefined) | 17
N#Cc1ccccc1SC1=C(O)CC(c2c(Cl)cccc2C(F)(F)F)CC1=O (centres undefined) | 0.64
Cc1cccc(C)c1C1CC(=O)C(Sc2ccccc2C#N)=C(O)C1 (centres undefined) | 2.1
N#Cc1ccccc1SC1=C(O)CC(c2c(Br)cccc2Br)CC1=O (centres undefined) | 0.18
Cc1cccc(CSC2=C(O)CC(c3ccccc3)CC2=O)c1 (centres undefined) | > 100
O=C1CC(c2ccccc2)CC(O)=C1SC1CCCCC1 (centres undefined) | > 100
CC(C)C(C)SC1=C(O)CC(c2ccccc2)CC1=O (centres undefined) | > 100
CC(C)SC1=C(O)CC(c2ccccc2)CC1=O (centres undefined) | > 100
CCC(C)CSC1=C(O)CC(c2ccccc2)CC1=O (centres undefined) | > 100

SMILES | IC50 [µM]
O=C1CC(c2ccccc2)CC(O)=C1SCCO (centres undefined) | > 100
COC(=O)CSC1=C(O)CC(c2ccccc2)CC1=O (centres undefined) | > 100
COC(=O)CCSC1=C(O)CC(c2ccccc2)CC1=O (centres undefined) | > 100
O=C1CC(c2ccccc2)CC(O)=C1SCc1ccccc1 (centres undefined) | > 100
Cc1ccccc1CSC1=C(O)CC(c2ccccc2)CC1=O (centres undefined) | > 100
O=C1CC(c2ccccc2)CC(O)=C1SCc1cccc(C(F)(F)F)c1 (centres undefined) | > 100
O=C1CC(c2ccccc2)CC(O)=C1SCc1ccc(Cl)cc1Cl (centres undefined) | > 100
Cc1cc(C)c(SC2=C(O)CC(c3ccccc3)CC2=O)nc1C#N (centres undefined) | > 100
O=C1CC(c2ccccc2)CC(O)=C1Sc1nccs1 (centres undefined) | > 100
Cc1csc(SC2=C(O)CC(c3ccccc3)CC2=O)n1 (centres undefined) | > 100
O=C1CC(c2ccccc2)CC(O)=C1Sc1ncc[nH]1 (centres undefined) | > 100
O=C1CC(c2ccccc2)CC(O)=C1Sc1nncs1 (centres undefined) | > 100
Cc1nnc(SC2=C(O)CC(c3ccccc3)CC2=O)s1 (centres undefined) | > 100
Nc1nnc(SC2=C(O)CC(c3ccccc3)CC2=O)s1 (centres undefined) | > 100
CSc1nnc(SC2=C(O)CC(c3ccccc3)CC2=O)s1 (centres undefined) | > 100
O=C1CC(c2ccccc2)CC(O)=C1Sc1ncccn1 (centres undefined) | > 100
Cc1ccnc(SC2=C(O)CC(c3ccccc3)CC2=O)n1 (centres undefined) | > 100
Cc1cc(C)nc(SC2=C(O)CC(c3ccccc3)CC2=O)n1 (centres undefined) | > 100
Cc1cnc(SC2=C(O)CC(c3ccccc3)CC2=O)nc1O (centres undefined) | > 100
CCOC(=O)c1cnc(SC2=C(O)CC(c3ccccc3)CC2=O)nc1N (centres undefined) | > 100
Nc1cc(N)nc(SC2=C(O)CC(c3ccccc3)CC2=O)n1 (centres undefined) | > 100
O=C1CC(c2ccccc2)CC(O)=C1Sc1nc(O)cc(C(F)(F)F)n1 (centres undefined) | > 100
O=C1CC(c2ccccc2)CC(O)=C1Sc1nc2ccccc2s1 (centres undefined) | > 100
O=C1CC(c2ccccc2)CC(O)=C1Sc1nc2ccc(Cl)cc2[nH]1 (centres undefined) | > 100
Cc1ccc2nc(SC3=C(O)CC(c4ccccc4)CC3=O)[nH]c2c1 (centres undefined) | > 100

Second part, the compound after the results:

IC50 [µM] | SMILES
> 100 | O=C1CC(c2ccccc2)CC(O)=C1Sc1ccc(F)cc1F (centres undefined)
> 100 | O=C1CC(c2ccccc2)CC(O)=C1Sc1ccccc1 (centres undefined)
53 | O=C1CC(c2ccccc2)CC(O)=C1Sc1ccccc1F (centres undefined)
53 | O=C1CC(c2ccccc2)CC(O)=C1Sc1ccccc1Br (centres undefined)
> 100 | Cc1ccccc1SC1=C(O)CC(c2ccccc2)CC1=O (centres undefined)
> 100 | CCc1ccccc1SC1=C(O)CC(c2ccccc2)CC1=O (centres undefined)
36 | O=C1CC(c2ccccc2)CC(O)=C1Sc1ccccc1CO (centres undefined)
> 100 | O=C1CC(c2ccccc2)CC(O)=C1Sc1ccccc1O (centres undefined)
> 100 | COc1ccccc1SC1=C(O)CC(c2ccccc2)CC1=O (centres undefined)
> 100 | O=C1CC(c2ccccc2)CC(O)=C1Sc1ccccc1C(=O)O (centres undefined)
> 100 | NC(=O)c1ccccc1SC1=C(O)CC(c2ccccc2)CC1=O (centres undefined)
> 100 | O=C1CC(c2ccccc2)CC(O)=C1Sc1cccc(F)c1 (centres undefined)
> 100 | O=C1CC(c2ccccc2)CC(O)=C1Sc1cccc(Cl)c1 (centres undefined)
> 100 | O=C1CC(c2ccccc2)CC(O)=C1Sc1cccc(Br)c1 (centres undefined)
> 100 | Cc1cccc(SC2=C(O)CC(c3ccccc3)CC2=O)c1 (centres undefined)
> 100 | O=C1CC(c2ccccc2)CC(O)=C1Sc1cccc(C(F)(F)F)c1 (centres undefined)
> 100 | COc1cccc(SC2=C(O)CC(c3ccccc3)CC2=O)c1 (centres undefined)
> 100 | O=C1CC(c2ccccc2)CC(O)=C1Sc1cccc(OC(F)(F)F)c1 (centres undefined)
> 100 | Nc1cccc(SC2=C(O)CC(c3ccccc3)CC2=O)c1 (centres undefined)

IC50 [µM] | SMILES
> 100 | NC(=O)c1cccc(SC2=C(O)CC(c3ccccc3)CC2=O)c1 (centres undefined)
> 100 | NS(=O)(=O)c1cccc(SC2=C(O)CC(c3ccccc3)CC2=O)c1 (centres undefined)
> 100 | O=C1CC(c2ccccc2)CC(O)=C1Sc1ccc(F)cc1 (centres undefined)
> 100 | O=C1CC(c2ccccc2)CC(O)=C1Sc1ccc(Cl)cc1 (centres undefined)
> 100 | O=C1CC(c2ccccc2)CC(O)=C1Sc1ccc(Br)cc1 (centres undefined)
> 100 | Cc1ccc(SC2=C(O)CC(c3ccccc3)CC2=O)cc1 (centres undefined)
> 100 | CCc1ccc(SC2=C(O)CC(c3ccccc3)CC2=O)cc1 (centres undefined)
> 100 | O=C1CC(c2ccccc2)CC(O)=C1Sc1ccc(C(F)(F)F)cc1 (centres undefined)
> 100 | O=C1CC(c2ccccc2)CC(O)=C1Sc1ccc(O)cc1 (centres undefined)
> 100 | COc1ccc(SC2=C(O)CC(c3ccccc3)CC2=O)cc1 (centres undefined)
> 100 | O=C1CC(c2ccccc2)CC(O)=C1Sc1ccc(C(=O)O)cc1 (centres undefined)
> 100 | CSc1ccc(SC2=C(O)CC(c3ccccc3)CC2=O)cc1 (centres undefined)
> 100 | Nc1ccc(SC2=C(O)CC(c3ccccc3)CC2=O)cc1 (centres undefined)
> 100 | CC(=O)Nc1ccc(SC2=C(O)CC(c3ccccc3)CC2=O)cc1 (centres undefined)
> 100 | O=C1CC(c2ccccc2)CC(O)=C1Sc1ccc(Cl)c(Cl)c1 (centres undefined)
> 100 | COc1ccc(SC2=C(O)CC(c3ccccc3)CC2=O)cc1OC (centres undefined)
> 100 | Cc1ccc(SC2=C(O)CC(c3ccccc3)CC2=O)cc1C (centres undefined)
> 100 | O=C1CC(c2ccccc2)CC(O)=C1Sc1cc(Cl)cc(Cl)c1 (centres undefined)
> 100 | Cc1cc(C)cc(SC2=C(O)CC(c3ccccc3)CC2=O)c1 (centres undefined)

IC50 [µM] | SMILES
> 100 | O=C1CC(c2ccccc2)CC(O)=C1Sc1cccc(Cl)c1F (centres undefined)
63 | O=C1CC(c2ccccc2)CC(O)=C1Sc1cccc(Cl)c1Cl (centres undefined)
12 | O=C1CC(c2ccccc2)CC(O)=C1Sc1cc(Cl)ccc1Cl (centres undefined)
> 100 | O=C1CC(c2ccccc2)CC(O)=C1Sc1c(Cl)cccc1Cl (centres undefined)
> 100 | Cc1cccc(Cl)c1SC1=C(O)CC(c2ccccc2)CC1=O (centres undefined)
24 | O=C1CC(c2ccccc2)CC(O)=C1Sc1ccc(F)cc1Cl (centres undefined)
> 100 | Cc1ccc(SC2=C(O)CC(c3ccccc3)CC2=O)c(C)c1 (centres undefined)
> 64 | Cc1ccc(C)c(SC2=C(O)CC(c3ccccc3)CC2=O)c1 (centres undefined)
> 100 | Cc1cccc(C)c1SC1=C(O)CC(c2ccccc2)CC1=O (centres undefined)
> 100 | O=C1CC(c2ccccc2)CC(O)=C1SCc1ccc(F)cc1 (centres undefined)
> 100 | Cc1ccc(CSC2=C(O)CC(c3ccccc3)CC2=O)cc1 (centres undefined)
> 100 | COc1ccc(CSC2=C(O)CC(c3ccccc3)CC2=O)cc1 (centres undefined)
> 100 | O=C1CC(c2ccccc2)CC(O)=C1Sc1cccc2ccccc12 (centres undefined)
> 100 | O=C1CC(c2ccccc2)CC(O)=C1Sc1ccc2ccccc2c1 (centres undefined)
> 100 | O=C1CC(c2ccccc2)CC(O)=C1Sc1ccccn1 (centres undefined)
> 100 | O=C1CC(c2ccccc2)CC(O)=C1Sc1cccs1 (centres undefined)
> 100 | O=C1CC(c2ccccc2)CC(O)=C1Sc1nc2ccccc2o1 (centres undefined)
> 100 | Nc1ccc2nc(SC3=C(O)CC(c4ccccc4)CC3=O)[nH]c2c1 (centres undefined)

Each compound was assayed against T1, L-lactate dehydrogenase A chain (assay: Inhibition of human recombinant carboxy-terminal His-tagged LDHA by SPR assay).

Kd [µM] | SMILES
8.2 | O=C1CC(c2ccccc2Cl)CC(O)=C1Sc1ccccc1Cl (centres undefined)
7.1 | O=C1CC(c2cccc(Cl)c2)CC(O)=C1Sc1ccccc1Cl (centres undefined)
27 | O=C1CC(c2ccc(Cl)cc2)CC(O)=C1Sc1ccccc1Cl (centres undefined)
13 | COc1ccc(C2CC(=O)C(Sc3ccccc3Cl)=C(O)C2)cc1 (centres undefined)
0.49 | O=C1CC(c2c(Cl)cccc2Br)CC(O)=C1Sc1ccccc1Cl (centres undefined)
0.37 | O=C1CC(c2c(Cl)ccc(Br)c2Cl)CC(O)=C1Sc1ccccc1Cl (centres undefined)

The compounds below were run against L-lactate dehydrogenase B chain (Homo sapiens, UniProt P07195).
L-lactate dehydrogenase B chain, sequence (P07195 whole entry): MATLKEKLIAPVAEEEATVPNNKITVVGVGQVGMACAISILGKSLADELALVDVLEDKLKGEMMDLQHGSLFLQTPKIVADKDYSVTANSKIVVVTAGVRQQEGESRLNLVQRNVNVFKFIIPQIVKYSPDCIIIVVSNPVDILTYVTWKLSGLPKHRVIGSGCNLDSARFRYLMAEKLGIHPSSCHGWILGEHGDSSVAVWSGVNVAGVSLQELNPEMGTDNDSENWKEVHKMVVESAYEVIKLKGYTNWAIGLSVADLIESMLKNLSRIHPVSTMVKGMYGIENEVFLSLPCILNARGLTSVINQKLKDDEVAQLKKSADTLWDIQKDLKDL
Description: Inhibition of human recombinant carboxy-terminal His-tagged LDHB by UV endpoint assay

IC50 [µM] | SMILES
6.9 | COc1ccc(C2CC(=O)C(Sc3ccccc3Cl)=C(O)C2)cc1 (centres undefined)
5.3 | O=C1CC(c2c(F)cccc2Cl)CC(O)=C1Sc1ccccc1Cl (centres undefined)
3.4 | O=C1CC(c2c(Cl)cccc2Br)CC(O)=C1Sc1ccccc1Cl (centres undefined)
1.3 | O=C1CC(c2c(F)cccc2F)CC(O)=C1Sc1ccccc1Cl (centres undefined)
15 | O=C1CC(c2c(Br)cccc2Br)CC(O)=C1Sc1ccccc1Cl (centres undefined)
1.9 | Cc1cccc(C)c1C1CC(=O)C(Sc2ccccc2Cl)=C(O)C1 (centres undefined)
> 10 | O=C1CC(c2c(Cl)ccc(Br)c2Cl)CC(O)=C1Sc1ccccc1Cl (centres undefined)
6.6 | N#Cc1ccccc1SC1=C(O)CC(c2ccccc2Cl)CC1=O (centres undefined)
> 10 | N#Cc1ccccc1SC1=C(O)CC(c2cccc(Cl)c2)CC1=O (centres undefined)
> 10 | N#Cc1ccccc1SC1=C(O)CC(c2ccc(Cl)cc2)CC1=O (centres undefined)
2.8 | N#Cc1ccccc1SC1=C(O)CC(c2c(Cl)cccc2C(F)(F)F)CC1=O (centres undefined)
7.8 | Cc1cccc(C)c1C1CC(=O)C(Sc2ccccc2C#N)=C(O)C1 (centres undefined)
